These results are taken from ChEMBL document CHEMBL3875150, “Biological evaluation of some new N-(2,6-dimethoxypyrimidinyl) thioureido benzenesulfonamide derivatives as potential antimicrobial and anticancer agents” (Eur J Med Chem, 2016).

≈ marks a conversion by molar mass, not a printed value. Some results are limits rather than exact numbers.

Assay [1] concerns Streptococcus pneumoniae. Kind of assay: Antibacterial activity against Streptococcus pneumoniae RCMB 010010 assessed as diameter of inhibition zone at 1 mg/mL after 24 to 48 hrs by agar well diffusion method. In kind it is functional. The settings on record: read-out: DIZ. In general terms: Agar diffusion results depend on both activity and mobility in agar.
For assay [2], the system named is Bacillus subtilis. Kind of assay: Antibacterial activity against Bacillus subtilis RCMB 010067 assessed as diameter of inhibition zone at 1 mg/mL after 24 to 48 hrs by agar well diffusion method. It is filed as functional. The settings on record: read-out: DIZ.
The test system of assay [3] is Streptococcus pneumoniae. Kind of assay: Antibacterial activity against Streptococcus pneumoniae RCMB 010010 after 24 to 48 hrs by agar well diffusion method. It is filed as functional.
Assay [4] relates to Bacillus subtilis. Kind of assay: Antibacterial activity against Bacillus subtilis RCMB 010067 after 24 to 48 hrs by agar well diffusion method. It is filed as functional.
The subject of assay [5] is Pseudomonas aeruginosa. Kind of assay: Antibacterial activity against Pseudomonas aeruginosa RCMB 010043 assessed as diameter of inhibition zone at 1 mg/mL after 24 to 48 hrs by agar well diffusion method. It is filed as functional. The conditions noted are these: read-out: DIZ.
Assay [6] deals with Escherichia coli. Kind of assay: Antibacterial activity against Escherichia coli RCMB 010052 assessed as diameter of inhibition zone at 1 mg/mL after 24 to 48 hrs by agar well diffusion method. It is filed as functional. The settings on record: read-out: DIZ.
Assay [7] has as its system Aspergillus fumigatus. Kind of assay: Antifungal activity against Aspergillus fumigatus RCMB 002568 assessed as diameter of inhibition zone at 1 mg/mL after 48 hrs by agar well diffusion method. In kind it is functional. The settings on record: RCMB 002568, 48 h, read-out: DIZ.
The test system of assay [8] is Pseudomonas aeruginosa. Kind of assay: Antibacterial activity against Pseudomonas aeruginosa RCMB 010043 after 24 to 48 hrs by agar well diffusion method. In kind it is functional.
Assay [9] has as its system Escherichia coli. Kind of assay: Antibacterial activity against Escherichia coli RCMB 010052 after 24 to 48 hrs by agar well diffusion method. It is filed as functional.
Assay [10] concerns Aspergillus fumigatus. Kind of assay: Antifungal activity against Aspergillus fumigatus RCMB 002568 after 24 to 48 hrs by agar well diffusion method. In kind it is functional.
In assay [11] the test system is Candida albicans. Kind of assay: Antifungal activity against Candida albicans RCMB 005036 after 24 to 48 hrs by agar well diffusion method. In kind it is functional.
The subject of assay [12] is Candida albicans. Kind of assay: Antifungal activity against Candida albicans RCMB 005036 assessed as diameter of inhibition zone at 1 mg/mL after 24 to 48 hrs by agar well diffusion method. It is filed as functional. The conditions noted are these: read-out: DIZ.
A short description of assay [13]: (§1) Cytotoxicity against human MCF7 cells assessed as decrease in cell viability after 24 hrs by MTT assay. It is filed as functional, cell-based. The conditions noted are these: MCF7, 24 h. On the technique in general: Tetrazolium dyes change colour on reduction, which living cells bring about.
Another assay relates to MCF7. The description is as §1. It is filed as functional, cell-based.

By MIC is commonly meant the lowest concentration found to suppress growth. High values mean a less susceptible organism, low ones a more susceptible organism. In the case of `O=C(O)c1cn(C2CC2)c2cc(N3CCNCC3)c(F)cc2c1=O` [CIPROFLOXACIN], the zone of inhibition at 1000 µg/mL is 22.4 mm in the assay with Streptococcus pneumoniae [1], 27.2 mm in the assay on Bacillus subtilis [2], 21.3 mm in the assay with Pseudomonas aeruginosa [5] and 25.8 mm in the assay on Escherichia coli [6]. The MIC in the assay with Streptococcus pneumoniae [3] came out at 0.98 mg/L (≈ 2.96 µM); in the assay with Bacillus subtilis [4] it was 0.1 mg/L (≈ 0.302 µM).

What is called IC50 is the concentration that inhibits the measured activity by half. `COc1cc(NS(=O)(=O)c2ccc(NC(=S)Nc3cnccn3)cc2)nc(OC)n1`: the zone of inhibition at 1000 µg/mL stood at 24.9 mm with Aspergillus fumigatus [7]; 25.8 mm with Streptococcus pneumoniae [1]; 26.4 mm in the assay on Bacillus subtilis [2]; 23.4 mm in the assay with Candida albicans [12]; 18.3 mm with Pseudomonas aeruginosa [5]; 28.7 mm in the assay on Escherichia coli [6]. In addition, the MIC against Pseudomonas aeruginosa [8] turned out to be 62.5 mg/L (≈ 140 µM); against Escherichia coli [9] it was 0.49 mg/L (≈ 1.09 µM); in the assay with Aspergillus fumigatus [10] it was 0.98 mg/L (≈ 2.19 µM); in the assay on Streptococcus pneumoniae [3] it was 0.98 mg/L (≈ 2.19 µM); against Candida albicans [11], 1.95 mg/L (≈ 4.36 µM); with Bacillus subtilis [4] it was 0.98 mg/L (≈ 2.19 µM). Also, in assay [13], the IC50 was > 200 mg/L. The Activity result in the assay on MCF7 is “Dose-dependent effect”.

`C[C@@H]1[C@H](O)[C@@H](C)/C=C/C=C/C=C/C=C/C=C/C=C/C=C/[C@H](O[C@@H]2O[C@H](C)[C@@H](O)[C@H](N)[C@@H]2O)C[C@@H]2O[C@](O)(C[C@@H](O)C[C@@H](O)[C@H](O)CC[C@@H](O)C[C@@H](O)CC(=O)O[C@H]1C)C[C@H](O)[C@H]2C(=O)O` [AMPHOTERICIN B]: the zone of inhibition at 1000 µg/mL turned out to be 23.7 mm with Aspergillus fumigatus [7] and 25.4 mm in the assay with Candida albicans [12]. The MIC with Aspergillus fumigatus [10] was 1.95 mg/L (≈ 2.11 µM); with Candida albicans [11] it was 3.9 mg/L (≈ 4.22 µM).

Take `COc1cc(NS(=O)(=O)c2ccc(NC(=S)Nc3cc(=O)n(C)c(=O)n3C)cc2)nc(OC)n1`: the zone of inhibition at 1000 µg/mL stood at 15.7 mm in the assay with Aspergillus fumigatus [7]; 17.9 mm in the assay with Streptococcus pneumoniae [1]; 18.5 mm with Bacillus subtilis [2]; 13.8 mm in the assay with Candida albicans [12]; 8.1 mm with Pseudomonas aeruginosa [5]; 19.1 mm in the assay with Escherichia coli [6]. Further, the minimal inhibitory concentration (MIC) against Pseudomonas aeruginosa [8] worked out at 500 mg/L (≈ 985 µM); against Escherichia coli [9], 3.9 mg/L (≈ 7.68 µM); in the assay with Aspergillus fumigatus [10] it was 62.5 mg/L (≈ 123 µM); against Streptococcus pneumoniae [3], 7.81 mg/L (≈ 15.4 µM); in the assay with Candida albicans [11], 125 mg/L (≈ 246 µM); in the assay with Bacillus subtilis [4], 3.9 mg/L (≈ 7.68 µM). Moreover, the IC50 in assay [13] was 96.1 mg/L (≈ 189 µM). Further, the Activity entry with MCF7 is “Dose-dependent effect”.

As for `COc1cc(NS(=O)(=O)c2ccc(NC(=S)Nc3nc4cc(C)c(C)cc4s3)cc2)nc(OC)n1`, the zone of inhibition at 1000 µg/mL was 23.3 mm in the assay with Aspergillus fumigatus [7]; 22.7 mm with Streptococcus pneumoniae [1]; 25.3 mm with Bacillus subtilis [2]; 21.4 mm in the assay with Candida albicans [12]; 10.3 mm with Pseudomonas aeruginosa [5]; 26.3 mm in the assay on Escherichia coli [6]. The MIC against Pseudomonas aeruginosa [8] was found to be 250 mg/L (≈ 471 µM); with Escherichia coli [9], 0.98 mg/L (≈ 1.85 µM); against Aspergillus fumigatus [10], 1.95 mg/L (≈ 3.67 µM); in the assay with Streptococcus pneumoniae [3] it was 1.95 mg/L (≈ 3.67 µM); in the assay on Candida albicans [11], 3.9 mg/L (≈ 7.35 µM); against Bacillus subtilis [4] it was 0.98 mg/L (≈ 1.85 µM). The IC50 in assay [13] turned out to be 93.9 mg/L (≈ 177 µM). Moreover, the Activity result in the assay on MCF7 was “Dose-dependent effect”.

Take `COc1cc(NS(=O)(=O)c2ccc(NC(=S)Nc3nc(C)cc(C)n3)cc2)nc(OC)n1`: the IC50 in [13] was found to be 82.9 mg/L (≈ 174 µM). Also, the Activity entry with MCF7 was “Dose-dependent effect”.

`CCOc1ccc2nc(NC(=S)Nc3ccc(S(=O)(=O)Nc4cc(OC)nc(OC)n4)cc3)sc2c1`: the zone of inhibition at 1000 µg/mL turned out to be 18.3 mm in the assay with Aspergillus fumigatus [7]; 20.3 mm with Streptococcus pneumoniae [1]; 21.3 mm with Bacillus subtilis [2]; 19.1 mm in the assay with Candida albicans [12]; 9.2 mm with Pseudomonas aeruginosa [5]; 18.3 mm in the assay with Escherichia coli [6]. The MIC was 500 mg/L (≈ 915 µM) in the assay on Pseudomonas aeruginosa [8]; 7.81 mg/L (≈ 14.3 µM) in the assay with Escherichia coli [9]; 7.81 mg/L (≈ 14.3 µM) with Aspergillus fumigatus [10]; 3.9 mg/L (≈ 7.13 µM) in the assay with Streptococcus pneumoniae [3]; 7.81 mg/L (≈ 14.3 µM) against Candida albicans [11]; 3.9 mg/L (≈ 7.13 µM) against Bacillus subtilis [4]. For the same compound, the IC50 in assay [13] is > 200 mg/L. In addition, in the assay on MCF7, the Activity result is “Dose-dependent effect”.

Consider `COc1cc(NS(=O)(=O)c2ccc(NC(=S)Nc3c(C)n(C)n(-c4ccccc4)c3=O)cc2)nc(OC)n1`, for which the zone of inhibition at 1000 µg/mL in the assay on Aspergillus fumigatus [7] amounted to 13.6 mm; in the assay on Candida albicans [12] it was 12.6 mm. In [13], the IC50 turned out to be 113 mg/L (≈ 203 µM). For the same compound, the Activity entry in the assay with MCF7 is “Dose-dependent effect”.

As for `COc1cc(NS(=O)(=O)c2ccc(NC(=S)Nc3ccncc3)cc2)nc(OC)n1`, the zone of inhibition at 1000 µg/mL with Aspergillus fumigatus [7] is 15.6 mm; with Streptococcus pneumoniae [1], 15.3 mm; with Bacillus subtilis [2], 15.9 mm; in the assay on Candida albicans [12] it was 13.9 mm; in the assay on Escherichia coli [6] it was 13.2 mm. For the same compound, the MIC with Pseudomonas aeruginosa [8] is > 1000 mg/L; in the assay with Escherichia coli [9] it was 125 mg/L (≈ 280 µM); in the assay with Aspergillus fumigatus [10], 62.5 mg/L (≈ 140 µM); against Streptococcus pneumoniae [3] it was 62.5 mg/L (≈ 140 µM); in the assay with Candida albicans [11], 125 mg/L (≈ 280 µM); with Bacillus subtilis [4] it was 62.5 mg/L (≈ 140 µM). The IC50 in assay [13] was determined as 168 mg/L (≈ 376 µM). In addition, the Activity entry with MCF7 is “Dose-dependent effect”.

Turning to `COc1cc(NS(=O)(=O)c2ccc(NC(=S)Nc3nccc4ccccc34)cc2)nc(OC)n1`, the IC50 in assay [13] was > 200 mg/L. In the assay with MCF7, the Activity result is “Dose-dependent effect”.

For the compound `CCSc1nnc(NC(=S)Nc2ccc(S(=O)(=O)Nc3cc(OC)nc(OC)n3)cc2)s1`, the zone of inhibition at 1000 µg/mL in the assay on Aspergillus fumigatus [7] amounted to 14.3 mm; in the assay on Candida albicans [12], 12.5 mm. Besides, the IC50 in assay [13] amounted to 119 mg/L (≈ 232 µM). Moreover, the Activity result with MCF7 was “Dose-dependent effect”.

On to `COc1cc(NS(=O)(=O)c2ccc(NC(=S)Nc3nnc(C)c(C)n3)cc2)nc(OC)n1`, for which the half-inhibitory concentration (IC50) in assay [13] was determined as 44.8 mg/L (≈ 94 µM). Further, in the assay with MCF7, the Activity entry is “Dose-dependent effect”.

As for `COc1cc(NS(=O)(=O)c2ccc(NC(=S)Nc3cccnc3)cc2)nc(OC)n1`, the half-inhibitory concentration (IC50) in assay [13] was 170 mg/L (≈ 380 µM). In addition, in the assay on MCF7, the Activity entry is “Dose-dependent effect”.

`O=c1[nH]cc(F)c(=O)[nH]1` [FLUOROURACIL]: the IC50 in assay [13] stood at 4.8 mg/L (≈ 36.9 µM). The Activity entry in the assay on MCF7 is “Dose-dependent effect”.

Regarding `COc1cc(NS(=O)(=O)c2ccc(NC(=S)Nc3ccc4c(c3)oc(=O)c3ccccc34)cc2)nc(OC)n1`, the zone of inhibition at 1000 µg/mL in the assay with Aspergillus fumigatus [7] turned out to be 14.2 mm; in the assay with Candida albicans [12], 13.1 mm; in the assay with Escherichia coli [6], 7.8 mm. In assay [13], the IC50 is 40.3 mg/L (≈ 71.5 µM). For the same compound, in the assay with MCF7, the Activity entry is “Dose-dependent effect”.

In the case of `COc1cc(NS(=O)(=O)c2ccc(NC(=S)Nc3nc4ccc([N+](=O)[O-])cc4s3)cc2)nc(OC)n1`, the zone of inhibition at 1000 µg/mL is 11.7 mm with Aspergillus fumigatus [7]; 13.3 mm with Streptococcus pneumoniae [1]; 14.1 mm with Bacillus subtilis [2]; 10.8 mm in the assay with Candida albicans [12]; 13.3 mm in the assay with Escherichia coli [6]. The MIC against Pseudomonas aeruginosa [8] was > 1000 mg/L; in the assay with Escherichia coli [9], 125 mg/L (≈ 228 µM); against Aspergillus fumigatus [10], 250 mg/L (≈ 457 µM); with Streptococcus pneumoniae [3], 125 mg/L (≈ 228 µM); with Candida albicans [11], 250 mg/L (≈ 457 µM); in the assay with Bacillus subtilis [4], 125 mg/L (≈ 228 µM). For the same compound, the IC50 in assay [13] was found to be 9.43 mg/L (≈ 17.2 µM). For the same compound, the Activity result in the assay with MCF7 was “Dose-dependent effect”.

Turning to `CCn1c2ccccc2c2cc(NC(=S)Nc3ccc(S(=O)(=O)Nc4cc(OC)nc(OC)n4)cc3)ccc21`, the zone of inhibition at 1000 µg/mL in the assay with Aspergillus fumigatus [7] was determined as 10.3 mm; in the assay with Candida albicans [12], 12.1 mm. For the same compound, the IC50 in assay [13] was 143 mg/L (≈ 254 µM). In addition, in the assay with MCF7, the Activity entry was “Dose-dependent effect”.
